Patent US7109197B2, “N-phenyl-4-(4-pyridyl)-2-pyrimidineamine derivatives” (Syngenta Crop Protection, Inc., priority 2000, dated 2006)

Legend:
Pyricularia oryzae = format: in vivo; conditions: Pyricularia oryzae on rice cv. Sasanishiki; 0.02% active substance, spray
Botrytis cinerea [1] = assay: Assay B-7: Botrytis cinerea/grape (Botrytis on grapes); format: in vivo; conditions: Botrytis cinerea on grape seedlings cv. Gutedel; 0.02% active substance, spray
Protocol: Assay B-7: Botrytis cinerea/Grape (Botrytis on Grapes) 5 week old grape seedlings cv. Gutedel are treated with the formulated testcompound (0.02% active substance) in a spray chamber. Two days after application grape plants are inoculated by spraying a spore suspension (1×10^6 conidia/ml) on the test plants. After an incubation period of 4 days at 21° C. and 95% r. h. in a greenhouse the disease incidence is assessed.

Botrytis cinerea [2] = assay: Assay B-8: Effect against Botrytis cinerea/tomato (Botrytis on tomatoes); format: in vivo; conditions: Botrytis cinerea on tomato cv. Roter Gnom; 0.02% active substance, spray
Protocol: Assay B-8: Effect Against Botrytis cinerea/Tomato (Botrytis on Tomatoes) 4 week old tomato plants cv. Roter Gnom are treated with the formulated testcompound 0.02% active substance) in a spray chamber. Two days after application tomato plants are inoculated by spraying a spore suspension (1×10^5 conidia/ml) on the test plants. After an incubation period of 4 days at 20° C. and 95% r. h. in a greenhouse the disease incidence is assessed.

Erysiphe graminis = assay: Assay B-6: Effect against Erysiphe graminis on barley (powdery mildew); residual protective / systemic activity; format: in vivo; conditions: 0.02% active substance spray (residual) or 0.002% soil (systemic), variant not stated
Protocol: Assay B-6: Effect Against Erysiphe graminis on Barley (Powdery Mildew on Barley) a) Residual Protective Activity […] The infected plants are placed in a greenhouse at 22°. 12 days after infection, the fungal attack is evaluated. b) Systemic Activity […] […] 48 hours later, the plants are dusted with conidia of the fungus. The infected plants are placed in a greenhouse at 22° C. 12 days after infection, the disease incidence is evaluated.

[3] = tested on: Pyrenophora teres (Helminthosporium); assay: Assay B-10: Effect against Pyrenophora teres (Helminthosporium)/barley (net blotch on barley); format: in vivo; conditions: Pyrenophora teres on barley cv. Regina, 0.02% active substance, spray; for pest or weed control at 0.02 % strength: 96 h, read-out: B10 activity
Protocol: Assay B-10: Effect Against Pyrenophora teres (Helminthosporium)/Barley (Net Blotch on Barley) 1 week old barley plants cv. Regina are treated with a formulated testcompound (0.02% active substance) in a spray chamber. Two days after application barley plants are inoculated by spraying a spore suspension (3×10^4 conidia/ml) on the test plants. After an incubation period of 2 days at 20° C. and 95% r.h. plants are kept for 2 days at 20° C. and 60% r.h. in a greenhouse. The disease incidence is assessed 4 days after inoculation.

Septoria nodorum = assay: Assay B-12: Effect against Septoria nodorum/wheat (Septoria leaf spot on wheat); format: in vivo; conditions: Septoria nodorum on wheat cv. Arina, 0.02% active substance, spray; for pest or weed control at 0.02 % strength: Parastagonospora nodorum, 264 h, read-out: B12 activity
Protocol: Assay B-12: Effect Against Septoria nodorum/Wheat (Septoria Leaf Spot on Wheat) 1 week old wheat plants cv. Arina are treated with a formulated test compound (0.02% active substance) in a spray chamber. One day after application wheat plants are inoculated by spraying a spore suspension (5×10^5 conidia/ml) on the test plants. After an incubation period of 1 day at 20° C. and 95% r.h. plants are kept for 10 days at 20° C. and 60% r.h. in a greenhouse. The disease incidence is assessed 11 days after inoculation.

Venturia inaegualis = assay: Assay B-5: Residual protective activity against Venturia inaegualis on apples (scab on apple); format: in vivo; conditions: Venturia inaegualis on apple seedlings cv. McIntosh; 0.02% active substance, spray
Protocol: Assay B-5: Residual Protective Activity Against Venturia inaegualis on Apples (Scab on Apple) 4 week old apple seedlings cv. McIntosh are treated with the formulated testcompound (0.02% active substance) in a spray chamber. One day after application apple plants are inoculated by spraying a spore suspension (4×10^5 conidia/ml) on the test plants. After an incubation period of 4 days at 21° C. and 95% r. h. the plants are placed for 4 days at 21° C. and 60% r. h. in a greenhouse. After another 4 day incubation period at 21° C. and 95% r. h. the disease incidence is assessed.

Fusarium culmorum = format: in vivo; conditions: in vivo

| SMILES | B9 activity (Pyricularia oryzae) | B7 activity (Botrytis cinerea [1]) | B8 activity (Botrytis cinerea [2]) | B6 activity (Erysiphe graminis) | B10 activity [3] | B12 activity (Septoria nodorum) | B5 activity (Venturia inaegualis) | melting point [°C] | pest or weed control at 0.02 % strength [3] [%] | pest or weed control at 0.02 % strength (Septoria nodorum) [%] | B11 activity (Fusarium culmorum) |
| --- | --- | --- | --- | --- | --- | --- | --- | --- | --- | --- | --- |
| COC(OC)C(C)Nc1cc(-c2ccnc(Nc3cccc(Cl)c3)n2)ccn1 (centres unmarked) [Compound 65] | + (the activity observed in the corresponding test system is 70% or more) | + (the activity observed in the corresponding test system is 70% or more) | + (the activity observed in the corresponding test system is 70% or more) | + (the activity observed in the corresponding test system is 70% or more) | + (the activity observed in the corresponding test system is 70% or more) | + (the activity observed in the corresponding test system is 70% or more) | + (the activity observed in the corresponding test system is 70% or more) | – | – | – | – |
| OCCNc1cc(-c2ccnc(Nc3cccc(Cl)c3)n2)ccn1 [Compound 37] | + (the activity observed in the corresponding test system is 70% or more) | + (the activity observed in the corresponding test system is 70% or more) | + (the activity observed in the corresponding test system is 70% or more) | + (the activity observed in the corresponding test system is 70% or more) | + (the activity observed in the corresponding test system is 70% or more) | + (the activity observed in the corresponding test system is 70% or more) | + (the activity observed in the corresponding test system is 70% or more) | – | – | – | – |
| FC(F)(F)CNc1cc(-c2ccnc(Nc3cccc(Cl)c3)n2)ccn1 [Compound 103] | – | – | – | + (the activity observed in the corresponding test system is 70% or more) | – | – | – | 222 to 223 | > 70 | > 70 | – |
| CC(C)=CCNc1cc(-c2ccnc(Nc3cccc(Cl)c3)n2)ccn1 [Compound 81] | – | – | + (the activity observed in the corresponding test system is 70% or more) | + (the activity observed in the corresponding test system is 70% or more) | + (the activity observed in the corresponding test system is 70% or more) | + (the activity observed in the corresponding test system is 70% or more) | – | – | – | – | – |
| CC(=O)OCC(C)Nc1cc(-c2ccnc(Nc3cccc(Cl)c3)n2)ccn1 (centres unmarked) [Compound 50] | + (the activity observed in the corresponding test system is 70% or more) | + (the activity observed in the corresponding test system is 70% or more) | + (the activity observed in the corresponding test system is 70% or more) | + (the activity observed in the corresponding test system is 70% or more) | + (the activity observed in the corresponding test system is 70% or more) | + (the activity observed in the corresponding test system is 70% or more) | + (the activity observed in the corresponding test system is 70% or more) | – | – | – | – |
| Clc1cccc(Nc2nccc(-c3ccnc(NC4CCOCC4)c3)n2)c1 [Compound 83] | – | – | + (the activity observed in the corresponding test system is 70% or more) | – | + (the activity observed in the corresponding test system is 70% or more) | + (the activity observed in the corresponding test system is 70% or more) | – | – | – | – | + (key: +: the activity observed in the corresponding test system is 70% or more) |
| Clc1cccc(Nc2nccc(-c3ccnc(NCCCN4CCOCC4)c3)n2)c1 [Compound 8] | – | – | + (the activity observed in the corresponding test system is 70% or more) | + (the activity observed in the corresponding test system is 70% or more) | – | – | – | – | – | – | – |
| COCCNc1cc(-c2ccnc(Nc3cccc(Cl)c3)n2)ccn1 [Compound 34] | – | + (the activity observed in the corresponding test system is 70% or more) | + (the activity observed in the corresponding test system is 70% or more) | – | + (the activity observed in the corresponding test system is 70% or more) | + (the activity observed in the corresponding test system is 70% or more) | – | – | – | – | + (key: +: the activity observed in the corresponding test system is 70% or more) |
| CC(CO)Nc1cc(-c2ccnc(Nc3cccc(Cl)c3)n2)ccn1 (centres unmarked) [Compound 39] | + (the activity observed in the corresponding test system is 70% or more) | + (the activity observed in the corresponding test system is 70% or more) | + (the activity observed in the corresponding test system is 70% or more) | – | + (the activity observed in the corresponding test system is 70% or more) | + (the activity observed in the corresponding test system is 70% or more) | – | – | – | – | – |
| CN(C)c1cc(-c2ccnc(Nc3cccc(Cl)c3)n2)ccn1 [Compound 59] | – | – | – | + (the activity observed in the corresponding test system is 70% or more) | – | – | – | 178 to 179 | > 70 | > 70 | – |
| Clc1cccc(Nc2nccc(-c3ccnc(NCCN4CCOCC4)c3)n2)c1 [Compound 20] | – | – | + (the activity observed in the corresponding test system is 70% or more) | + (the activity observed in the corresponding test system is 70% or more) | + (the activity observed in the corresponding test system is 70% or more) | + (the activity observed in the corresponding test system is 70% or more) | – | – | – | – | – |
| Nc1cc(-c2ccnc(Nc3cccc(Cl)c3)n2)ccn1 [Compound 58] | + (the activity observed in the corresponding test system is 70% or more) | + (the activity observed in the corresponding test system is 70% or more) | + (the activity observed in the corresponding test system is 70% or more) | + (the activity observed in the corresponding test system is 70% or more) | – | – | + (the activity observed in the corresponding test system is 70% or more) | 214 to 215 | > 70 | > 70 | – |
| COCC(C)Nc1cc(-c2ccnc(Nc3cccc(OC(F)(F)C(F)F)c3)n2)ccn1 (centres unmarked) [Compound 5] | – | – | – | – | + (the activity observed in the corresponding test system is 70% or more) | + (the activity observed in the corresponding test system is 70% or more) | – | – | – | – | + (key: +: the activity observed in the corresponding test system is 70% or more) |
| O=C(Nc1cc(-c2ccnc(Nc3cccc(Cl)c3)n2)ccn1)C(F)(F)F [Compound 63] | + (the activity observed in the corresponding test system is 70% or more) | + (the activity observed in the corresponding test system is 70% or more) | + (the activity observed in the corresponding test system is 70% or more) | – | – | – | + (the activity observed in the corresponding test system is 70% or more) | 180 to 181 | > 70 | > 70 | – |
| COCC(C)Nc1cc(-c2ccnc(Nc3cccc(Cl)c3)n2)cc(F)n1 (centres unmarked) [Compound 7] | – | – | – | + (the activity observed in the corresponding test system is 70% or more) | + (the activity observed in the corresponding test system is 70% or more) | – | + (the activity observed in the corresponding test system is 70% or more) | – | – | – | – |
